Test results: patent publication US20080275032A1, “Pyridazinone compounds” (priority 2006, published 2008)
pIC50: −log10 of the molar value.

Biological target: HCV NS5B polymerase (Hepatitis C virus genotype 1b, UniProt P26663)
Assay: biochemical
Conditions: HCV polymerase inhibition, 50 nM enzyme, 2 h at room temperature, FlashPlate [α-33P]GTP incorporation
Experimental: NS5B Polymerase Inhibition Assay (IC50)
Compounds were tested for HCV polymerase inhibition. Assays were performed in a 96-well streptavidin-coated FlashPlate using 50 nM enzyme, 0.5 μCi of [α-^33P]GTP, 0.6 μM GTP, and 50 nM 5′biotinylated oligo (rG13)/poly rC in 20 mM Tris-HCl, pH 7.5, 5 mM MgCl2, 20 mM NaCl, 5 mM dithiothreitol, and 0.1 g/L BSA. The reaction was stopped by aspiration after 2 h at room temperature and the plate was washed several times. After washing, incorporated radioactivity was counted using a Microbeta scintillation counter.

Chain of HCV NS5B polymerase (P26663 2420-3010): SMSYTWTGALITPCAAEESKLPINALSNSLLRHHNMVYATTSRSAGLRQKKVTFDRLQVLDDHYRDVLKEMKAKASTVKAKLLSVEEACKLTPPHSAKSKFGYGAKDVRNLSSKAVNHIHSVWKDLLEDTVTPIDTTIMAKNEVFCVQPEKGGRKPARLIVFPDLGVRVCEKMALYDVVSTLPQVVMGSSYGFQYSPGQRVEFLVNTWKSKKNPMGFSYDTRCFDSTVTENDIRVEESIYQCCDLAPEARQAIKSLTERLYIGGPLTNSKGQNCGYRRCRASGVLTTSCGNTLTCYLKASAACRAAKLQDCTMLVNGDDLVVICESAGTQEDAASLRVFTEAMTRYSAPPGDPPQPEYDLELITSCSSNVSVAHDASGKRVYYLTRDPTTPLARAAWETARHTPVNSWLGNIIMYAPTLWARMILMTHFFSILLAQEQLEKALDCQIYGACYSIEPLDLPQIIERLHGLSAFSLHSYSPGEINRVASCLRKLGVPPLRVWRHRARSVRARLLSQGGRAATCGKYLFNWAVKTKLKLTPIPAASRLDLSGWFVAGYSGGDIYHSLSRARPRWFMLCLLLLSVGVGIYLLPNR

SMILES | pIC50
CC(C)(C)Cn1nc(-c2cccs2)c(O)c(C2=Nc3ccc(NS(C)(=O)=O)cc3S(=O)(=O)N2)c1=O [N-{3-[2-(2,2-Dimethyl-propyl)-5-hydroxy-3-oxo-6-thiophen-2-yl-2,3-dihydro-pyridazin-4-yl]-1,1-dioxo-1,2-dihydro-1λ^6-benzo[1,2,4]thiadiazin-7-yl}-methanesulfonamide] | > 7.00
CCCS(=O)(=O)Nc1ccc2c(c1)S(=O)(=O)N=C(c1c(O)c(-c3cccs3)nn(CCC(C)C)c1=O)N2 [Propane-1-sulfonic acid {3-[5-hydroxy-2-(3-methyl-butyl)-3-oxo-6-thiophen-2-yl-2,3-dihydro-pyridazin-4-yl]-1,1-dioxo-1,2-dihydro-1λ^6-benzo[1,2,4]thiadiazin-7-yl}-amide] | > 7.00
CC(C)CCn1nc(-c2cccs2)c(O)c(C2=Nc3ccc(NC(=O)OC(C)C)cc3S(=O)(=O)N2)c1=O [{3-[5-Hydroxy-2-(3-methyl-butyl)-3-oxo-6-thiophen-2-yl-2,3-dihydro-pyridazin-4-yl]-1,1-dioxo-1,2-dihydro-1λ^6-benzo[1,2,4]thiadiazin-7-yl}-carbamic acid isopropyl ester] | 5.00 to 6.00
CN(c1ccc2c(c1)S(=O)(=O)NC(c1c(O)c(CC(C)(C)C)nn(CC3CCC3)c1=O)=N2)S(C)(=O)=O [N-{3-[2-Cyclobutylmethyl-6-(2,2-dimethyl-propyl)-5-hydroxy-3-oxo-2,3-dihydro-pyridazin-4-yl]-1,1-dioxo-1,2-dihydro-1λ^6-benzo[1,2,4]thiadiazin-7-yl}-N-methyl-methanesulfonamide] | 5.00 to 6.00
CCC(C)(C)c1nn(CCC(C)C)c(=O)c(C2=NS(=O)(=O)c3cc(NS(C)(=O)=O)ccc3N2)c1O [N-{3-[6-(1,1-Dimethyl-propyl)-5-hydroxy-2-(3-methyl-butyl)-3-oxo-2,3-dihydro-pyridazin-4-yl]-1,1-dioxo-1,2-dihydro-1λ^6-benzo[1,2,4]thiadiazin-7-yl}-methanesulfonamide] | 6.00 to 7.00
O=c1c(C2=Nc3ccc(NS(=O)(=O)C4CC4)cc3S(=O)(=O)N2)c(O)c(-c2cccs2)nn1Cc1ccc(F)c(Cl)c1 [Cyclopropanesulfonic acid {3-[2-(3-chloro-4-fluoro-benzyl)-5-hydroxy-3-oxo-6-thiophen-2-yl-2,3-dihydro-pyridazin-4-yl]-1,1-dioxo-1,2-dihydro-1λ^6-benzo[1,2,4]thiadiazin-7-yl}-amide] | 6.00 to 7.00
CCCS(=O)(=O)Nc1ccc2c(c1)S(=O)(=O)NC(c1c(O)c(-c3cncs3)nn(CCC(C)C)c1=O)=N2 [Propane-1-sulfonic acid {3-[5-hydroxy-2-(3-methyl-butyl)-3-oxo-6-thiazol-5-yl-2,3-dihydro-pyridazin-4-yl]-1,1-dioxo-1,2-dihydro-1λ^6-benzo[1,2,4]thiadiazin-7-yl}-amide] | > 7.00
CC(C)CCn1nc(-c2cncs2)c(O)c(C2=Nc3ccc(NS(=O)(=O)C(C)C)cc3S(=O)(=O)N2)c1=O [Propane-2-sulfonic acid {3-[5-hydroxy-2-(3-methyl-butyl)-3-oxo-6-thiazol-5-yl-2,3-dihydro-pyridazin-4-yl]-1,1-dioxo-1,2-dihydro-1λ^6-benzo[1,2,4]thiadiazin-7-yl}-amide] | > 7.00
CC(C)CCn1nc(-c2cccs2)c(O)c(C2=Nc3ccc(N(COC(=O)C(C)(C)C)S(C)(=O)=O)cc3S(=O)(=O)N2)c1=O [2,2-Dimethyl-propionic acid ({3-[5-hydroxy-2-(3-methyl-butyl)-3-oxo-6-thiophen-2-yl-2,3-dihydro-pyridazin-4-yl]-1,1-dioxo-1,2-dihydro-1λ^6-benzo[1,2,4]thiadiazin-7-yl}-methanesulfonyl-amino)-methylester] | 6.00 to 7.00
O=C(NS(=O)(=O)Nc1ccc2c(c1)S(=O)(=O)NC(c1c(O)c(-c3cncs3)nn(CC3CCC3)c1=O)=N2)OCc1ccccc1 [N-[3-(2-Cyclobutylmethyl-5-hydroxy-3-oxo-6-thiazol-5-yl-2,3-dihydro-pyridazin-4-yl)-1,1-dioxo-1,2-dihydro-1λ^6-benzo[1,2,4]thiadiazin-7-yl]-3-carbamic-acid-benzyl-ester-sulfamide] | > 7.00
CCN(CC)CCS(=O)(=O)Nc1ccc2c(c1)S(=O)(=O)NC(c1c(O)c(-c3cccs3)nn(CCC(C)(C)C)c1=O)=N2 [2-Diethylamino-ethanesulfonicacid {3-[2-(3,3-dimethyl-butyl)-5-hydroxy-3-oxo-6-thiophen-2-yl-2,3-dihydro-pyridazin-4-yl]-1,1-dioxo-1,4-dihydro-1λ^6-benzo[1,2,4]thiadiazin-7-yl}-amide] | 6.00 to 7.00
CC(C)CCn1nc(-c2cccs2)c(O)c(C2=Nc3ccc(N(C(=O)OC(C)C)S(C)(=O)=O)cc3S(=O)(=O)N2)c1=O [N-({3-[5-hydroxy-2-(3-methyl-butyl)-3-oxo-6-thiophen-2-yl-2,3-dihydro-pyridazin-4-yl]-1,1-dioxo-1,2-dihydro-1λ^6-benzo[1,2,4]thiadiazin-7-yl}-N-methanesulfonyl)-isopropylcarbamate] | 6.00 to 7.00
CS(=O)(=O)Nc1ccc2c(c1)S(=O)(=O)N=C(c1c(O)c(-c3cccs3)nn(CCC3CCCC3)c1=O)N2 [N-{3-[2-(2-Cyclopentyl-ethyl)-5-hydroxy-3-oxo-6-thiophen-2-yl-2,3-dihydro-pyridazin-4-yl]-1,1-dioxo-1,2-dihydro-1λ^6-benzo[1,2,4]thiadiazin-7-yl}-methanesulfonamide] | > 7.00
CS(=O)(=O)Nc1ccc2c(c1)S(=O)(=O)NC(c1c(O)c(-c3cncs3)nn(CCC3CC3)c1=O)=N2 [N-{3-[2-(2-Cyclopropyl-ethyl)-5-hydroxy-3-oxo-6-thiazol-5-yl-2,3-dihydro-pyridazin-4-yl]-1,1-dioxo-1,2-dihydro-1λ^6-benzo[1,2,4]thiadiazin-7-yl}-methanesulfonamide] | > 7.00
CC(C)CCn1nc(-c2cccs2)c(O)c(C2=NS(=O)(=O)c3cc(CCS(C)(=O)=O)ccc3N2)c1=O [5-Hydroxy-4-[7-(2-methanesulfonyl-ethyl)-1,1-dioxo-1,2-dihydro-1λ^6-benzo[1,2,4]thiadiazin-3-yl]-2-(3-methyl-butyl)-6-thiophen-2-yl-2H-pyridazin-3-one] | 6.00 to 7.00
CS(=O)(=O)Nc1ccc2c(c1)S(=O)(=O)N=C(c1c(O)c(-c3cccs3)nn(CC3(C(F)(F)F)CC3)c1=O)N2 [N-{3-[5-Hydroxy-3-oxo-6-thiophen-2-yl-2-(1-trifluoromethyl-cyclopropylmethyl)-2,3-dihydro-pyridazin-4-yl]-1,1-dioxo-1,2-dihydro-1λ^6-benzo[1,2,4]thiadiazin-7-yl}-methanesulfonamide] | > 7.00
CC(C)(C)CCn1nc(-c2cccs2)c(O)c(C2=Nc3ccc(NS(=O)(=O)CCN)cc3S(=O)(=O)N2)c1=O [2-Amino-ethanesulfonic acid {3-[2-(3,3-dimethyl-butyl)-5-hydroxy-3-oxo-6-thiophen-2-yl-2,3-dihydro-pyridazin-4-yl]-1,1-dioxo-1,2-dihydro-1λ^6-benzo[1,2,4]thiadiazin-7-yl}-amide] | > 7.00
CC(C)CCn1nc(-c2cncs2)c(O)c(C2=NS(=O)(=O)c3cc(NS(C)(=O)=O)ccc3N2)c1=O [N-{3-[5-Hydroxy-2-(3-methyl-butyl)-3-oxo-6-thiazol-5-yl-2,3-dihydro-pyridazin-4-yl]-1,1-dioxo-1,2-dihydro-1λ^6-benzo[1,2,4]thiadiazin-7-yl}-methanesulfonamide] | > 7.00
CC(C)CCn1nc(C(C)(C)C)c(O)c(C2=Nc3ccc(NS(=O)(=O)C4CC4)cc3S(=O)(=O)N2)c1=O [Cyclopropanesulfonic acid {3-[6-tert-butyl-5-hydroxy-2-(3-methyl-butyl)-3-oxo-2,3-dihydro-pyridazin-4-yl]-1,1-dioxo-1,2-dihydro-1λ^6-benzo[1,2,4]thiadiazin-7-yl}-amide] | 5.00 to 6.00
CC(C)CCn1nc(CC2CCC2)c(O)c(C2=NS(=O)(=O)c3cc(NS(C)(=O)=O)ccc3N2)c1=O [N-{3-[6-Cyclobutylmethyl-5-hydroxy-2-(3-methyl-butyl)-3-oxo-2,3-dihydro-pyridazin-4-yl]-1,1-dioxo-1,2-dihydro-1λ^6-bnezo[1,2,4]thiadiazin-7-yl}-methanesulfonamide] | 6.00 to 7.00
CCCC(C)n1nc(-c2cccs2)c(O)c(C2=NS(=O)(=O)c3cc(NS(C)(=O)=O)ccc3N2)c1=O (stereo not drawn) [N-{3-[5-Hydroxy-2-(1-methyl-butyl)-3-oxo-6-thiophen-2-yl-2,3-dihydro-pyridazin-4-yl]-1,1-dioxo-1,2-dihydro-1λ^6-benzo[1,2,4]thiadiazin-7-yl}-methanesulfonamide] | 6.00 to 7.00
CC(C)S(=O)(=O)Nc1ccc2c(c1)S(=O)(=O)NC(c1c(O)c(-c3cccs3)nn(CCC3CC3)c1=O)=N2 [Propane-2-sulfonic acid {3-[2-(2-cyclopropyl-ethyl)-5-hydroxy-3-oxo-6-thiophen-2-yl-2,3-dihydro-pyridazin-4-yl]-1,1-dioxo-1,2-dihydro-1λ^6-benzo[1,2,4]thiadiazin-7-yl}-amide] | > 7.00
CCS(=O)(=O)Nc1ccc2c(c1)S(=O)(=O)NC(c1c(O)c(-c3cccs3)nn(CCC(C)C)c1=O)=N2 [Ethanesulfonic acid {3-[5-hydroxy-2-(3-methyl-butyl)-3-oxo-6-thiophen-2-yl-2,3-dihydro-pyridazin-4-yl]-1,1-dioxo-1,2-dihydro-1λ^6-benzo[1,2,4]thiadiazin-7-yl}-amide] | > 7.00
CC(C)CCn1nc(C2=CCCC2)c(O)c(C2=NS(=O)(=O)c3cc(NS(C)(=O)=O)ccc3N2)c1=O [N-{3-[6-Cyclopent-1-enyl-5-hydroxy-2-(3-methyl-butyl)-3-oxo-2,3-dihydro-pyridazin-4-yl]-1,1-dioxo-1,2-dihydro-1λ^6-benzo[1,2,4]thiadiazin-7-yl}-methanesulfonamide] | > 7.00
